The values that follow come from patent publication US12622918B2, “Formulations and dosages for administering a compound that inhibits MCL1 protein” (Amgen Inc., priority 2019, dated 2026).

Each structure is given as a SMILES string.

The test system of this experiment is caspase 3. In words: Caspase 3 cleavage in OPM2-Luc tumor xenografts (PD). The format is in vivo, mice. The settings on record: for induction of caspase 3 cleavage: 4-, vs vehicle p<0.05. Here is the method: Activation of the pro-apoptotic pore-forming protein BAK and proteolytic cleavage of the cysteine-aspartic acid protease caspase 3 (hallmarks of the induction of apoptosis) in MCL1-dependent OPM2-Luc multiple myeloma tumor cells served as a PD assay. Female athymic nude mice were injected with 5×10^6 cells in 0.1 mL subcutaneously (SC). […] Mice were euthanized 2, 4, 8, 12, and 24 hours postdose (n=3/group), terminal plasma samples were collected for PK analysis, and tumors were halved and snap frozen in liquid nitrogen for PK and molecular analyses. Tumor lysates were prepared for evaluation of BAK activation and caspase 3 cleavage using an electrochemiluminescence immunoassay. Tumors treated with vehicle (25% HPβCD, pH 8) served as a negative control and indicated the baseline level of apoptosis.

Take `CO[C@H]1/C=C/C[C@H](C)[C@@H](C)S(=O)(=O)NC(=O)c2ccc3c(c2)N(C[C@@H]2CC[C@H]21)C[C@@]1(CCCc2cc(Cl)ccc21)CO3` [AMG 176]: the “induction of caspase 3 cleavage” value reads like this: (20 mg/kg oral gavage, 8-, and 12-hour time points) “Statistically significant induction of caspase 3 cleavage”; (30 mg/kg oral gavage, 2-, 8-, and 12-hour time points) “Statistically significant induction of caspase 3 cleavage”; (60 mg/kg oral gavage, 2-, 8-, 12-, and 24-hour time points) “Statistically significant induction of caspase 3 cleavage”. Where the note is “60 mg/kg, 2 hours postdose, persisted to 12 hours”, the “induction of cleaved caspase 3” value is given as “approximately 7.5 fold”. For the setting “60 mg/kg, 24 hours postdose”, the “cleaved caspase levels above control” value was 5 fold.
